# Source: ChEMBL document CHEMBL5724914, “Linking interpersonal differences in gut microbiota composition and drug biotransformation activity” (2024)
# Where a SMILES comes first, the peptide text is derived from it. [ ]: non-standard residue; d: D form. pGlu = O=C1CC[C@@H](C(=O)O)N1; Thz = O=C(O)[C@@H]1CSCN1
# Columns and labels:
# [1] = human gut metagenome, 24 h, 2 µM
# [2] = (§1) The drug is tested on Z-007 corresponding to rat gut metagenome with ENA study accession number: PRJEB37062 and ENA sample accession number: ERS12561807 for biotransformation under anaerobic condition. The drug concentrations were measured over 9 timepoints collected between 0 and 24 hours of incubation by liquid-chromatography-coupled mass spectrometry (LC–MS); conditions: 2 µM
# [3] = as §1, with “Z-029” for “Z-007”, “ERS12561828” for “ERS12561807”; conditions: 2 µM
# [4] = human gut metagenome, 24 h, 2 µM; remark: listed apart in the source
# [5] = human gut metagenome, 24 h, 2 µM; remark: listed apart in the source
# [6] = human gut metagenome, 24 h, 2 µM; remark: listed apart in the source
# [7] = as §1, with “Z-012” for “Z-007”, “to” for “to rat gut”, “ERS12561812” for “ERS12561807”; conditions: 2 µM
# [8] = human gut metagenome, 24 h, 2 µM; remark: listed apart in the source
# [9] = human gut metagenome, 24 h, 2 µM; remark: listed apart in the source
# [10] = human gut metagenome, 24 h, 2 µM; remark: listed apart in the source
# [11] = human gut metagenome, 24 h, 2 µM; remark: listed apart in the source
# [12] = human gut metagenome, 24 h, 2 µM; remark: listed apart in the source
# [13] = as §1, with “on WLS-077” for “on Z-007”, “to human” for “to rat”, “number: ERS12561750” for “number: ERS12561807”; conditions: 2 µM
# [14] = as §1, with “on Z-030” for “on Z-007”, “to mouse” for “to rat”, “number: ERS12561829” for “number: ERS12561807”; conditions: 2 µM
# [15] = as §1, with “on Z-024” for “on Z-007”, “to pig” for “to rat”, “number: ERS12561823” for “number: ERS12561807”; conditions: 2 µM
# [16] = human gut metagenome, 24 h, 2 µM; remark: listed apart in the source
# [17] = as §1, with “on Z-001” for “on Z-007”, “to mouse” for “to rat”, “number: ERS12561801” for “number: ERS12561807”; conditions: 2 µM
# [18] = as §1, with “Z-005” for “Z-007”, “to” for “to rat gut”, “ERS12561805” for “ERS12561807”; conditions: 2 µM
# [19] = as §1, with “on WLS-090” for “on Z-007”, “to human” for “to rat”, “number: ERS12561753” for “number: ERS12561807”; conditions: 2 µM
# [20] = as §1, with “on WLS-082” for “on Z-007”, “to human” for “to rat”, “number: ERS12561751” for “number: ERS12561807”; conditions: 2 µM
# Further: call rule not given here.
smiles,measurement,setting,value
CC(O)(CS(=O)(=O)c1ccc(F)cc1)C(=O)Nc1ccc(C#N)c(C(F)(F)F)c1 (stereo not drawn) [BICALUTAMIDE],Bacterial Biotransformation,[1],Compound NOT metabolized
same,Bacterial Biotransformation,[2],Compound NOT metabolized
same,Bacterial Biotransformation,[3],Compound NOT metabolized
same,Bacterial Biotransformation,[4],Compound NOT metabolized
same,Bacterial Biotransformation,[5],Compound NOT metabolized
same,Bacterial Biotransformation,[6],Compound NOT metabolized
same,Bacterial Biotransformation,[7],Compound NOT metabolized
same,Bacterial Biotransformation,[8],Compound NOT metabolized
same,Bacterial Biotransformation,[9],Compound NOT metabolized
same,Bacterial Biotransformation,[10],Compound NOT metabolized
same,Bacterial Biotransformation,[11],Compound NOT metabolized
same,Bacterial Biotransformation,[12],Compound NOT metabolized
same,Bacterial Biotransformation,[13],Compound NOT metabolized
same,Bacterial Biotransformation,[14],Compound NOT metabolized
same,Bacterial Biotransformation,[15],Compound NOT metabolized
same,Bacterial Biotransformation,[16],Compound NOT metabolized
same,Bacterial Biotransformation,[17],Compound NOT metabolized
same,Bacterial Biotransformation,[18],Compound NOT metabolized
same,Bacterial Biotransformation,[19],Compound NOT metabolized
C[C@@H]1C[C@H]2[C@@H]3CCC4=CC(=O)C=C[C@]4(C)[C@@]3(F)[C@@H](O)C[C@]2(C)[C@@]1(O)C(=O)CO [DEXAMETHASONE],Bacterial Biotransformation,[1],Compound NOT metabolized
same,Bacterial Biotransformation,[2],Compound NOT metabolized
same,Bacterial Biotransformation,[3],Compound NOT metabolized
same,Bacterial Biotransformation,[4],Compound NOT metabolized
same,Bacterial Biotransformation,[5],Compound NOT metabolized
same,Bacterial Biotransformation,[6],Compound NOT metabolized
same,Bacterial Biotransformation,[7],Compound metabolized
same,Bacterial Biotransformation,[8],Compound NOT metabolized
same,Bacterial Biotransformation,[9],Compound NOT metabolized
same,Bacterial Biotransformation,[10],Compound NOT metabolized
same,Bacterial Biotransformation,[11],Compound NOT metabolized
same,Bacterial Biotransformation,[12],Compound NOT metabolized
same,Bacterial Biotransformation,[13],Compound NOT metabolized
same,Bacterial Biotransformation,[14],Compound NOT metabolized
same,Bacterial Biotransformation,[15],Compound metabolized
same,Bacterial Biotransformation,[16],Compound NOT metabolized
same,Bacterial Biotransformation,[17],Compound NOT metabolized
same,Bacterial Biotransformation,[18],Compound metabolized
CCCC1O[C@@H]2C[C@H]3[C@@H]4CCC5=CC(=O)C=C[C@]5(C)[C@H]4[C@@H](O)C[C@]3(C)[C@]2(C(=O)CO)O1 (stereo partly drawn) [BUDESONIDE],Bacterial Biotransformation,[1],Compound metabolized
same,Bacterial Biotransformation,[2],Compound NOT metabolized
same,Bacterial Biotransformation,[3],Compound NOT metabolized
same,Bacterial Biotransformation,[4],Compound metabolized
same,Bacterial Biotransformation,[5],Compound metabolized
same,Bacterial Biotransformation,[6],Compound metabolized
same,Bacterial Biotransformation,[7],Compound metabolized
same,Bacterial Biotransformation,[8],Compound metabolized
same,Bacterial Biotransformation,[9],Compound NOT metabolized
same,Bacterial Biotransformation,[10],Compound metabolized
same,Bacterial Biotransformation,[11],Compound metabolized
same,Bacterial Biotransformation,[12],Compound NOT metabolized
same,Bacterial Biotransformation,[13],Compound metabolized
same,Bacterial Biotransformation,[14],Compound NOT metabolized
same,Bacterial Biotransformation,[15],Compound metabolized
same,Bacterial Biotransformation,[16],Compound metabolized
same,Bacterial Biotransformation,[17],Compound NOT metabolized
same,Bacterial Biotransformation,[18],Compound metabolized
same,Bacterial Biotransformation,[19],Compound metabolized
CCCCCCOC(=O)/N=C(/N)c1ccc(NCc2nc3cc(C(=O)N(CCC(=O)OCC)c4ccccn4)ccc3n2C)cc1.CS(=O)(=O)O [DABIGATRAN ETEXILATE MESYLATE],Bacterial Biotransformation,[2],Compound NOT metabolized
same,Bacterial Biotransformation,[3],Compound NOT metabolized
same,Bacterial Biotransformation,[7],Compound NOT metabolized
same,Bacterial Biotransformation,[8],Compound NOT metabolized
same,Bacterial Biotransformation,[14],Compound NOT metabolized
same,Bacterial Biotransformation,[15],Compound NOT metabolized
same,Bacterial Biotransformation,[16],Compound metabolized
same,Bacterial Biotransformation,[17],Compound NOT metabolized
same,Bacterial Biotransformation,[18],Compound NOT metabolized
COc1cc2nc(N3CCN(C(=O)c4ccco4)CC3)nc(N)c2cc1OC [PRAZOSIN],Bacterial Biotransformation,[1],Compound metabolized
same,Bacterial Biotransformation,[2],Compound NOT metabolized
same,Bacterial Biotransformation,[3],Compound NOT metabolized
same,Bacterial Biotransformation,[4],Compound metabolized
same,Bacterial Biotransformation,[5],Compound NOT metabolized
same,Bacterial Biotransformation,[6],Compound NOT metabolized
same,Bacterial Biotransformation,[7],Compound NOT metabolized
same,Bacterial Biotransformation,[20],Compound metabolized
same,Bacterial Biotransformation,[9],Compound NOT metabolized
same,Bacterial Biotransformation,[10],Compound NOT metabolized
same,Bacterial Biotransformation,[11],Compound NOT metabolized
same,Bacterial Biotransformation,[12],Compound NOT metabolized
same,Bacterial Biotransformation,[13],Compound NOT metabolized
same,Bacterial Biotransformation,[14],Compound NOT metabolized
same,Bacterial Biotransformation,[15],Compound NOT metabolized
same,Bacterial Biotransformation,[16],Compound metabolized
same,Bacterial Biotransformation,[17],Compound NOT metabolized
same,Bacterial Biotransformation,[18],Compound NOT metabolized
same,Bacterial Biotransformation,[19],Compound metabolized
OCCN1CCN(CCCN2c3ccccc3Sc3ccc(C(F)(F)F)cc32)CC1 [FLUPHENAZINE],Bacterial Biotransformation,[1],Compound metabolized
same,Bacterial Biotransformation,[2],Compound NOT metabolized
same,Bacterial Biotransformation,[3],Compound NOT metabolized
same,Bacterial Biotransformation,[4],Compound metabolized
same,Bacterial Biotransformation,[5],Compound metabolized
same,Bacterial Biotransformation,[6],Compound metabolized
same,Bacterial Biotransformation,[7],Compound metabolized
same,Bacterial Biotransformation,[20],Compound metabolized
same,Bacterial Biotransformation,[8],Compound metabolized
same,Bacterial Biotransformation,[9],Compound metabolized
same,Bacterial Biotransformation,[10],Compound metabolized
same,Bacterial Biotransformation,[11],Compound metabolized
same,Bacterial Biotransformation,[12],Compound NOT metabolized
same,Bacterial Biotransformation,[14],Compound NOT metabolized
same,Bacterial Biotransformation,[15],Compound metabolized
same,Bacterial Biotransformation,[16],Compound metabolized
same,Bacterial Biotransformation,[17],Compound metabolized
same,Bacterial Biotransformation,[18],Compound metabolized
same,Bacterial Biotransformation,[19],Compound metabolized
O=C1CC[C@@H](C(=O)N2CSC[C@H]2C(=O)O)N1 [PIDOTIMOD] ([pGlu]-[Thz]-OH),Bacterial Biotransformation,[2],Compound NOT metabolized
same,Bacterial Biotransformation,[3],Compound NOT metabolized
same,Bacterial Biotransformation,[4],Compound NOT metabolized
same,Bacterial Biotransformation,[7],Compound NOT metabolized
same,Bacterial Biotransformation,[20],Compound NOT metabolized
same,Bacterial Biotransformation,[8],Compound NOT metabolized
same,Bacterial Biotransformation,[10],Compound NOT metabolized
same,Bacterial Biotransformation,[11],Compound NOT metabolized
same,Bacterial Biotransformation,[12],Compound NOT metabolized
same,Bacterial Biotransformation,[13],Compound NOT metabolized
same,Bacterial Biotransformation,[14],Compound NOT metabolized
same,Bacterial Biotransformation,[15],Compound metabolized
same,Bacterial Biotransformation,[16],Compound NOT metabolized
same,Bacterial Biotransformation,[17],Compound NOT metabolized
same,Bacterial Biotransformation,[18],Compound metabolized
same,Bacterial Biotransformation,[19],Compound NOT metabolized
C#C[C@]1(O)CC[C@H]2[C@@H]3CCC4=CC(=O)CC[C@@H]4[C@H]3CC[C@@]21CC [LEVONORGESTREL],Bacterial Biotransformation,[1],Compound metabolized
same,Bacterial Biotransformation,[2],Compound metabolized
same,Bacterial Biotransformation,[3],Compound NOT metabolized
same,Bacterial Biotransformation,[4],Compound metabolized
same,Bacterial Biotransformation,[5],Compound metabolized
same,Bacterial Biotransformation,[6],Compound metabolized
same,Bacterial Biotransformation,[20],Compound metabolized
same,Bacterial Biotransformation,[8],Compound metabolized
same,Bacterial Biotransformation,[9],Compound NOT metabolized
same,Bacterial Biotransformation,[10],Compound metabolized
same,Bacterial Biotransformation,[11],Compound metabolized
same,Bacterial Biotransformation,[12],Compound NOT metabolized
same,Bacterial Biotransformation,[13],Compound metabolized
same,Bacterial Biotransformation,[14],Compound NOT metabolized
same,Bacterial Biotransformation,[16],Compound metabolized
same,Bacterial Biotransformation,[17],Compound NOT metabolized
same,Bacterial Biotransformation,[19],Compound metabolized
c1ccc([C@H]2CN3CCSC3=N2)cc1 [LEVAMISOLE],Bacterial Biotransformation,[1],Compound metabolized
same,Bacterial Biotransformation,[2],Compound NOT metabolized
same,Bacterial Biotransformation,[3],Compound NOT metabolized
same,Bacterial Biotransformation,[4],Compound metabolized
same,Bacterial Biotransformation,[5],Compound metabolized
same,Bacterial Biotransformation,[7],Compound NOT metabolized
same,Bacterial Biotransformation,[8],Compound metabolized
same,Bacterial Biotransformation,[9],Compound metabolized
same,Bacterial Biotransformation,[10],Compound metabolized
same,Bacterial Biotransformation,[11],Compound metabolized
same,Bacterial Biotransformation,[12],Compound NOT metabolized
same,Bacterial Biotransformation,[14],Compound NOT metabolized
same,Bacterial Biotransformation,[17],Compound NOT metabolized
CO[C@]12C[C@@H](COC(=O)c3cncc(Br)c3)CN(C)[C@@H]1Cc1cn(C)c3cccc2c13 [NICERGOLINE],Bacterial Biotransformation,[1],Compound NOT metabolized
same,Bacterial Biotransformation,[2],Compound NOT metabolized
same,Bacterial Biotransformation,[3],Compound NOT metabolized
same,Bacterial Biotransformation,[4],Compound metabolized
same,Bacterial Biotransformation,[5],Compound NOT metabolized
same,Bacterial Biotransformation,[6],Compound NOT metabolized
same,Bacterial Biotransformation,[7],Compound NOT metabolized
same,Bacterial Biotransformation,[20],Compound NOT metabolized
same,Bacterial Biotransformation,[8],Compound NOT metabolized
same,Bacterial Biotransformation,[9],Compound NOT metabolized
same,Bacterial Biotransformation,[10],Compound NOT metabolized
same,Bacterial Biotransformation,[11],Compound NOT metabolized
same,Bacterial Biotransformation,[12],Compound NOT metabolized
same,Bacterial Biotransformation,[14],Compound NOT metabolized
same,Bacterial Biotransformation,[15],Compound metabolized
same,Bacterial Biotransformation,[16],Compound NOT metabolized
same,Bacterial Biotransformation,[17],Compound metabolized
same,Bacterial Biotransformation,[18],Compound metabolized
same,Bacterial Biotransformation,[19],Compound metabolized
